We go through eight compounds from ChEMBL document CHEMBL4251694 (ACS Med Chem Lett, 2018).

The subject of assay [1] is Influenza A virus. The assay can be described thus: Antiviral activity against Influenza A virus A/WSN/33 H1N1 harboring N31S mutant infected in MDCK cells assessed as reduction in virus-induced cytopathic effect by crystal violet staining based light-microscopic analysis. In kind it is functional, organism-based, A/WSN/1933(H1N1).
For assay [2], the target named is Matrix protein 2 (Influenza A virus (A/Udorn/307/1972(H3N2)), UniProt P0DOF8, S31N). The assay can be described thus: Binding affinity to Influenza A virus A/Udorn/72 M2 proton channel S31N mutant expressed in Xenopus laevis oocytes at pH 5.5 by two-electrode voltage clamp assay. The assay is classed as cell-based, Influenza A virus (A/udorn/1972(H3N2)).
For assay [3] the target is unchanged. The assay can be described thus: Binding affinity to Influenza A virus A/Udorn/72 M2 proton channel S31N mutant by isothermal calorimetric titration. The arrangement: species or system Influenza A virus (A/udorn/1972(H3N2)).

`C[C@@H](N)C12CC3CC(CC(C3)C1)C2`: the EC50 in assay [1] turned out to be 40 nM.
For the compound `C[C@H](N)C12CC3CC(CC(C3)C1)C2`, the EC50 in assay [1] came out at 20 nM.
Turning to `CC(C)(N)C12CC3CC(CC(C3)C1)C2`, the affinity in assay [2], expressed as Kd, was 0.444 mM. Further, in assay [1], the EC50 was 30 nM.
In the case of `CCC(N)(CC)C12CC3CC(CC(C3)C1)C2`, the EC50 in assay [1] amounted to 1010 nM.
Turning to `CCCC(N)(CCC)C12CC3CC(CC(C3)C1)C2`, the results for the Kd in assay [2] and in assay [3] were 1.8 mM and more than 10 µM, respectively. For the same compound, in assay [1], the EC50 is 1060 nM.
For the compound `NC12CC3CC(CC(C3)C1)C2` [AMANTADINE], in assay [1], the EC50 is 480 nM.
Still for that read-out and setting: to `CCOC(=O)C1=C[C@@H](OC(CC)CC)[C@H](NC(C)=O)[C@@H](N)C1` [OSELTAMIVIR] belongs 20 nM; to `CC(N)C12CC3CC(CC(C3)C1)C2` (stereo unspecified) [RIMANTADINE], 40 nM.
